Laboratory results from US12065436B2, “Cardiac sarcomere inhibitors” (Cytokinetics, Inc., priority 2018, dated 2024).

Molecular target: bovine cardiac myofibrils (full-length cardiac myosin ATPase in the native sarcomere) (Bos taurus (Bovine), UniProt Q9BE39)
Assay: Skinned bovine cardiac myofibril ATPase assay (PK/LDH-coupled)
Type: biochemical
Conditions: Ca2+ activating to 75% of maximal rate; for CDMF75 IC15: concentration giving 15% inhibition; for IC50: read-out: CDMF75 IC50
Summary of the method: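 Triton-skinned bovine left-ventricle myofibrils (1 mg/mL) in PM 12 buffer (12 mM PIPES, 2 mM MgCl2, pH 6.8) with 50 μM ATP, 0.6 mM EGTA and CaCl2 set for 50% or 75% activation. Steady-state ATPase inhibition followed by PK/LDH-coupled NADH oxidation at 340 nm.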

Sequence of bovine cardiac myofibrils (full-length cardiac myosin ATPase in the native sarcomere) (Q9BE39 whole entry): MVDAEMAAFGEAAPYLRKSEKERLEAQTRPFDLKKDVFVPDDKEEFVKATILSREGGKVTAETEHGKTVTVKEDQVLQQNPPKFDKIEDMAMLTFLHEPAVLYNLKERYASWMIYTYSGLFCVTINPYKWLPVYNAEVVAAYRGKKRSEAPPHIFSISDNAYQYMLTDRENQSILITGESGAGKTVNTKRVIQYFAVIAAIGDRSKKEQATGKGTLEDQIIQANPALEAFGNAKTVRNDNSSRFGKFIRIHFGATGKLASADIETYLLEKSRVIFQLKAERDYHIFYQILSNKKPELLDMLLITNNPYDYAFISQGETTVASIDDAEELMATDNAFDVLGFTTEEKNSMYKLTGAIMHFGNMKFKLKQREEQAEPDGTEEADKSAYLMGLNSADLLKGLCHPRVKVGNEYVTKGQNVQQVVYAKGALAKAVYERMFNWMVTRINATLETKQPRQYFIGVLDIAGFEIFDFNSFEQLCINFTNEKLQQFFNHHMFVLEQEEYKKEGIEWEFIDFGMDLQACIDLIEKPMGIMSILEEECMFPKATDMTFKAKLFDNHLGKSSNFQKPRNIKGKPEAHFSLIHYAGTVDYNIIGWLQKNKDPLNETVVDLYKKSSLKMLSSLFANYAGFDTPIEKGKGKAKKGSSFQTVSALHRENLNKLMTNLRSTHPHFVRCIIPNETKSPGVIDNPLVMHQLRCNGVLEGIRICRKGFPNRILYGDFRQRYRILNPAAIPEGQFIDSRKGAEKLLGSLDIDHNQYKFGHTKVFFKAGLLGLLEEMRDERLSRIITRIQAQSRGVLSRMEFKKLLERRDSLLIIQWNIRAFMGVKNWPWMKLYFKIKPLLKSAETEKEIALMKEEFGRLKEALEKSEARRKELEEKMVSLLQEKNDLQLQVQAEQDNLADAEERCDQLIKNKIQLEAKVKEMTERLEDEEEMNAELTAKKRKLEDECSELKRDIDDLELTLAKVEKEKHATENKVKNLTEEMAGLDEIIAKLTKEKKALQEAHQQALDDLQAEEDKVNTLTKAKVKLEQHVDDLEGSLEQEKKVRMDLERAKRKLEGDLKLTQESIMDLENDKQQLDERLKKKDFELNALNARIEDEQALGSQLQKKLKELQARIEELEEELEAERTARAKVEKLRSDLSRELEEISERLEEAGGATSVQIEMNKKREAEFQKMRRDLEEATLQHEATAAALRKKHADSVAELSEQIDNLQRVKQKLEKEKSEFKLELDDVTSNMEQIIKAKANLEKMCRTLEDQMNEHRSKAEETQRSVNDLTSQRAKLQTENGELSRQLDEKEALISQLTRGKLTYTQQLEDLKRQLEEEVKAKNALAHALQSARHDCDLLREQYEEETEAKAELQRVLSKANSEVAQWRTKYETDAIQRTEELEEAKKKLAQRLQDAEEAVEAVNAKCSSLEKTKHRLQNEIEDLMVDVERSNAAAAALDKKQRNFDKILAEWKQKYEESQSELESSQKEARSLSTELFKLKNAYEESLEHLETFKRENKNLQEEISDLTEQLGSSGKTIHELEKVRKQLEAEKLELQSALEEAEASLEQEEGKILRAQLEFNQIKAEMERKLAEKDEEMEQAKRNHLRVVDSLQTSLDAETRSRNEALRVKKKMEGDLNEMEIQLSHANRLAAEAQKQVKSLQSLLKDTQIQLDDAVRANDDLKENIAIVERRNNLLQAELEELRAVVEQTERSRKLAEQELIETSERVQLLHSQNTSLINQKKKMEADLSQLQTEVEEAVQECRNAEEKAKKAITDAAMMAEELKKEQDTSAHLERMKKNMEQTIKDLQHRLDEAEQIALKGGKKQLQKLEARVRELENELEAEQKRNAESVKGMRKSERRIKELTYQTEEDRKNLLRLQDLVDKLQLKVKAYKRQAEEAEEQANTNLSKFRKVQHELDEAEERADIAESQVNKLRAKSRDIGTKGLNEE
Sequence of bovine cardiac myofibrils (full-length cardiac myosin ATPase in the native sarcomere) (P85100 whole entry partner): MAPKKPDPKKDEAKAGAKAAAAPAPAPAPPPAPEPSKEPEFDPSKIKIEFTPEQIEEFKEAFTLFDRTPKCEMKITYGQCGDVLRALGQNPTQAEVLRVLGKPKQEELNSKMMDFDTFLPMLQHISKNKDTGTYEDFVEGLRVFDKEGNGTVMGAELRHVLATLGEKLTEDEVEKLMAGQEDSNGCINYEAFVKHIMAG
Sequence of bovine cardiac myofibrils (full-length cardiac myosin ATPase in the native sarcomere) (Q3SZE5 whole entry partner): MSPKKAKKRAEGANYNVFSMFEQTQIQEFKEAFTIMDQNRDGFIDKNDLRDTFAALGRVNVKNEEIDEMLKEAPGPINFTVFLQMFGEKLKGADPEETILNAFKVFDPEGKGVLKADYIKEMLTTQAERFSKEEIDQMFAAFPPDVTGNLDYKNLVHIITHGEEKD

| CDMF75 IC15 | IC50 | SMILES |
| --- | --- | --- |
| 1400 nM | 7000 nM | CCc1nc(-c2ccc3c(c2)CC[C@H]3NC(=O)c2coc(C)n2)no1 [Compound 561, (R)-N-(5-(5-ethyl-1,2,4-oxadiazol-3-yl)-2,3-dihydro-1H-inden-1-yl)-2-methyloxazole-4-carboxamide] |
| 200 nM | 600 nM | CCc1nc(-c2ccc3c(c2)CC[C@H]3NC(=O)c2cnoc2C)no1 [Compound 564, (R)-N-(5-(5-ethyl-1,2,4-oxadiazol-3-yl)-2,3-dihydro-1H-inden-1-yl)-5-methylisoxazole-4-carboxamide] |
| 200 nM | 800 nM | CCc1nc(-c2ccc3c(c2)CC[C@H]3NC(=O)c2conc2C)no1 [Compound 566, (R)-N-(5-(5-ethyl-1,2,4-oxadiazol-3-yl)-2,3-dihydro-1H-inden-1-yl)-3-methylisoxazole-4-carboxamide] |
| 700 nM | 2800 nM | CCc1nc(-c2ccc3c(c2)CC[C@H]3NC(=O)c2cc(C)on2)no1 [Compound 569, (R)-N-(5-(5-ethyl-1,2,4-oxadiazol-3-yl)-2,3-dihydro-1H-inden-1-yl)-5-methylisoxazole-3-carboxamide] |
| 400 nM | 1400 nM | CCc1nc(-c2ccc3c(c2)CC[C@H]3NC(=O)c2cnn(C)c2C)no1 [Compound 570, (R)-N-(5-(5-ethyl-1,2,4-oxadiazol-3-yl)-2,3-dihydro-1H-inden-1-yl)-1,5-dimethyl-1H-pyrazole-4-carboxamide] |
| 400 nM | 1300 nM | CCc1nc(-c2ccc3c(c2)CC[C@H]3NC(=O)c2cnn(C)c2C)no1 [Compound 571, (R)-N-(5-(5-ethyl-1,2,4-oxadiazol-3-yl)-2,3-dihydro-1H-inden-1-yl)-1,5-dimethyl-1H-pyrazole-4-carboxamide] |
| 1200 nM | 5100 nM | CCc1nc(-c2ccc3c(c2)CC[C@H]3NC(=O)c2nccn2C)no1 [Compound 579, (R)-N-(5-(5-ethyl-1,2,4-oxadiazol-3-yl)-2,3-dihydro-1H-inden-1-yl)-1-methyl-1H-imidazole-2-carboxamide] |
| 400 nM | 1400 nM | CCc1nc(-c2ccc3c(c2)CC[C@H]3NC(=O)c2ccno2)no1 [Compound 581, (R)-N-(5-(5-ethyl-1,2,4-oxadiazol-3-yl)-2,3-dihydro-1H-inden-1-yl)isoxazole-5-carboxamide] |
| 400 nM | 1300 nM | CCc1nc(-c2ccc3c(c2)CC[C@H]3NC(=O)c2ccno2)no1 [Compound 582, (R)-N-(5-(5-ethyl-1,2,4-oxadiazol-3-yl)-2,3-dihydro-1H-inden-1-yl)isoxazole-5-carboxamide] |
| 400 nM | 1300 nM | CCc1nc(-c2ccc3c(c2)CC[C@H]3NC(=O)c2cnco2)no1 [Compound 583, (R)-N-(5-(5-ethyl-1,2,4-oxadiazol-3-yl)-2,3-dihydro-1H-inden-1-yl)oxazole-5-carboxamide] |
| 300 nM | 1200 nM | CCc1nc(-c2ccc3c(c2)CC[C@H]3NC(=O)c2cnco2)no1 [Compound 584, (R)-N-(5-(5-ethyl-1,2,4-oxadiazol-3-yl)-2,3-dihydro-1H-inden-1-yl)oxazole-5-carboxamide] |
| 500 nM | 2500 nM | CCc1nc(-c2ccc3c(c2)CC[C@H]3NC(=O)c2ccon2)no1 [Compound 585, (R)-N-(5-(5-ethyl-1,2,4-oxadiazol-3-yl)-2,3-dihydro-1H-inden-1-yl)isoxazole-3-carboxamide] |
| 500 nM | 2300 nM | CCc1nc(-c2ccc3c(c2)CC[C@H]3NC(=O)c2ccon2)no1 [Compound 586, (R)-N-(5-(5-ethyl-1,2,4-oxadiazol-3-yl)-2,3-dihydro-1H-inden-1-yl)isoxazole-3-carboxamide] |
| 2500 nM | 12900 nM | CCc1nc(-c2ccc3c(c2)CC[C@H]3NC(=O)c2cocn2)no1 [Compound 587, (R)-N-(5-(5-ethyl-1,2,4-oxadiazol-3-yl)-2,3-dihydro-1H-inden-1-yl)oxazole-4-carboxamide] |
| 2700 nM | 10900 nM | CCc1nc(-c2ccc3c(c2)CC[C@H]3NC(=O)c2ccn(C)n2)no1 [Compound 592, (R)-N-(5-(5-ethyl-1,2,4-oxadiazol-3-yl)-2,3-dihydro-1H-inden-1-yl)-1-methyl-1H-pyrazole-3-carboxamide] |
| 500 nM | 2100 nM | CCc1nc(-c2ccc3c(c2)CC[C@H]3NC(=O)c2ncco2)no1 [Compound 593, (R)-N-(5-(5-ethyl-1,2,4-oxadiazol-3-yl)-2,3-dihydro-1H-inden-1-yl)oxazole-2-carboxamide] |

Second part, the compound before the results:

| SMILES | CDMF75 IC15 | IC50 |
| --- | --- | --- |
| CCc1nc(-c2ccc3c(c2)CC[C@H]3NC(=O)c2ccn(C[C@@H](C)O)c(=O)c2)no1 [Compound 560, N-((R)-5-(5-ethyl-1,2,4-oxadiazol-3-yl)-2,3-dihydro-1H-inden-1-yl)-1-((R)-2-hydroxypropyl)-2-oxo-1,2-dihydropyridine-4-carboxamide] | 1300 nM | 4700 nM |
| CCc1nc(-c2ccc3c(c2F)CC[C@H]3NC(=O)c2cnn(C)c2)no1 [Compound 562, (R)-N-(5-(5-ethyl-1,2,4-oxadiazol-3-yl)-4-fluoro-2,3-dihydro-1H-inden-1-yl)-1-methyl-1H-pyrazole-4-carboxamide] | 300 nM | 1000 nM |
| CCc1nc(-c2ccc3c(c2)CC[C@H]3NC(=O)c2cn(C)nc2C)no1 [Compound 563, (R)-N-(5-(5-ethyl-1,2,4-oxadiazol-3-yl)-2,3-dihydro-1H-inden-1-yl)-1,3-dimethyl-1H-pyrazole-4-carboxamide] | 400 nM | 1200 nM |
| CCc1nc(-c2ccc3c(c2)CC[C@H]3NC(=O)c2cc(C)nn2C)no1 [Compound 567, (R)-N-(5-(5-ethyl-1,2,4-oxadiazol-3-yl)-2,3-dihydro-1H-inden-1-yl)-1,3-dimethyl-1H-pyrazole-5-carboxamide] | 300 nM | 1000 nM |
| CCc1nc(-c2ccc3c(c2)CC[C@H]3NC(=O)c2cnc(C)n2C)no1 [Compound 568, (R)-N-(5-(5-ethyl-1,2,4-oxadiazol-3-yl)-2,3-dihydro-1H-inden-1-yl)-1,2-dimethyl-1H-imidazole-5-carboxamide] | 400 nM | 1600 nM |
| CCc1nc(-c2ccc3c(c2)CC[C@H]3NC(=O)c2cnn(CCO)c2C)no1 [Compound 572, (R)-N-(5-(5-ethyl-1,2,4-oxadiazol-3-yl)-2,3-dihydro-1H-inden-1-yl)-1-(2-hydroxyethyl)-5-methyl-1H-pyrazole-4-carboxamide] | 500 nM | 1800 nM |
| CCOCCn1cc(C(=O)N[C@@H]2CCc3cc(-c4noc(CC)n4)ccc32)cn1 [Compound 573, (R)-1-(2-ethoxyethyl)-N-(5-(5-ethyl-1,2,4-oxadiazol-3-yl)-2,3-dihydro-1H-inden-1-yl)-1H-pyrazole-4-carboxamide] | 900 nM | 4100 nM |
| CCc1nc(-c2ccc3c(c2)CC[C@H]3NC(=O)c2cnn(CCOC)c2C)no1 [Compound 574, (R)-N-(5-(5-ethyl-1,2,4-oxadiazol-3-yl)-2,3-dihydro-1H-inden-1-yl)-1-(2-methoxyethyl)-5-methyl-1H-pyrazole-4-carboxamide] | 1000 nM | 4200 nM |
| CCc1nc(-c2ccc3c(c2)CC[C@H]3NC(=O)c2cnn(CCOC)c2C)no1 [Compound 575, (R)-N-(5-(5-ethyl-1,2,4-oxadiazol-3-yl)-2,3-dihydro-1H-inden-1-yl)-1-(2-methoxyethyl)-5-methyl-1H-pyrazole-4-carboxamide] | 1100 nM | 4200 nM |
| C[C@@H](O)Cn1cc(C(=O)N[C@@H]2CCc3cc(-c4noc(C5CC5)n4)ccc32)cn1 [Compound 576, N-((R)-5-(5-cyclopropyl-1,2,4-oxadiazol-3-yl)-2,3-dihydro-1H-inden-1-yl)-1-((R)-2-hydroxypropyl)-1H-pyrazole-4-carboxamide] | 3500 nM | 15200 nM |
| CCc1nc(-c2ccc3c(c2)CC[C@H]3NC(=O)c2ccnc(C(F)F)c2)no1 [Compound 578, (R)-2-(difluoromethyl)-N-(5-(5-ethyl-1,2,4-oxadiazol-3-yl)-2,3-dihydro-1H-inden-1-yl)isonicotinamide] | 400 nM | 1200 nM |
| CCc1nc(-c2ccc3c(c2)CC[C@H]3NC(=O)c2cc(C)n(C)n2)no1 [Compound 580, (R)-N-(5-(5-ethyl-1,2,4-oxadiazol-3-yl)-2,3-dihydro-1H-inden-1-yl)-1,5-dimethyl-1H-pyrazole-3-carboxamide] | 3100 nM | 17600 nM |
| CCc1nc(-c2cc(Cl)c3c(c2)CC[C@H]3NC(=O)c2cnn(C)c2)no1 [Compound 588, (R)-N-(7-chloro-5-(5-ethyl-1,2,4-oxadiazol-3-yl)-2,3-dihydro-1H-inden-1-yl)-1-methyl-1H-pyrazole-4-carboxamide] | 1200 nM | 4300 nM |
| CCc1nc(-c2ccc3c(c2)CC[C@H]3NC(=O)c2csc(C)n2)no1 [Compound 590, (R)-N-(5-(5-ethyl-1,2,4-oxadiazol-3-yl)-2,3-dihydro-1H-inden-1-yl)-2-methylthiazole-4-carboxamide] | 1400 nM | 6800 nM |
| CCc1nc(-c2ccc3c(c2)CC[C@H]3NC(=O)Cc2ccccc2)no1 [Compound 591, (R)-N-(5-(5-ethyl-1,2,4-oxadiazol-3-yl)-2,3-dihydro-1H-inden-1-yl)-2-phenylacetamide] | 4400 nM | 9800 nM |
| CCc1nc(-c2ccc3c(c2)CC[C@H]3NC(=O)c2cccc(C)n2)no1 [Compound 594, (R)-N-(5-(5-ethyl-1,2,4-oxadiazol-3-yl)-2,3-dihydro-1H-inden-1-yl)-6-methylpicolinamide] | 1400 nM | 5800 nM |
